Where two headings read alike, the source gives them in different places.

One assay has as its system SK-OV-3 cells. Nature of the assay: MTT assay, growth inhibition of ovarian cancer cell line SK-OV-3. It counts as cell-based. Conditions: Homo sapiens; for CC50: SK-OV-3 cells, 72 hrs, concentration giving 50% cell survival, Table 8; for EC50: SK-OV-3, SKOV-3 cells, Table 10. The procedure:
The MTT assay was described in Hansen, M. B., Nielson, S. E., and Berg, K. (1989) J. Immunol Methods 119, 203-210 and incorporated herein by reference in its entirety. Briefly, SK-OV-3 cells were seeded in 96-well plates in McCoy's medium containing 10% fetal bovine serum albumin (10,000 per well) and incubated overnight at 37° C. […] This incubation time was optimal for measuring inhibitory effects of different analogs. 50 microliters of 5 mg/mL MTT reagent was added to each well, and the plates were incubated at 37° C. for 3 hours. At the end of the incubation period, 50 microliters of DMSO was added to each well to dissolve cells, and the optical density (OD) of the wells was measured with a microplate reader (Victor^2 1420, Wallac, Finland) at 535 nm. Cell survival (CS) was calculated using the following equation: CS=(OD treated well/mean OD control wells)×100%
The EC50 (Table 1). defined as the drug concentration that results in 50% CS, was derived by calculating the point where the dose-response curve crosses the 50% CS point using GraphPad Prism.
A general note: Formazan colour is commonly taken as a measure of viable cells.

A further assay deals with cIAP-1-Bir3 (Homo sapiens, UniProt Q13490). Nature of the assay: Fluorescence polarization binding assay, purified cIAP-1 BIR-3 domain. Conditions: for Kd: BIR-3 domain; for binding to cIAP-1 and cIAP-2 relative to XIAP (fold more tightly): ratio of binding constants vs XIAP. The procedure: (§1) Binding constants were measured using fluorescence polarization as described in Zancta Nikolovska-Coleska et al., (2004) Analytical biochemistry, 332, 261-273. Briefly, various known concentrations of each test peptide were mixed with 5 nM fluorescently labeled peptide (AbuRPF-K(5-Fam)—NH2; FP peptide) and 40 nM of XIAP-Bir3, cIAP-1-Bir3 or cIAP-2-Bir3 in 100 μl of 0.1M Potassium Phosphate buffer, pH 7.5 containing 100 μg/ml bovine γ-globulin. These mixtures were incubated for 15 min at room temperature (approximately 22° C.). Following incubation, the polarization values (mP) were measured on a Victor^2V using a 485 nm excitation filter and a 535 nm emission filter. Kj(app) values were determined from the plot using nonlinear least-squares analysis using GraphPad Prism (Table 8).
(§2) In any event, binding to cIAP-1 and cIAP-2 or other IAPs can be determined using standard binding affinity assays, as illustrated above. […] We have utilized the specificity of this IAP binding motif in a fluorescence polarization assay to measure the binding affinities for cIAP-1 and cIAP-2 Antagonists. The fluorescence polarization assay consists of FP peptide, and the recombinant BIR3 domain of the XIAP protein. The FP peptide and mimics of the […] compete for binding to the BIR3 protein. […] If a peptide, peptidomimetic, or other small molecule being tested is a competitor, then it succeeds in displacing the FP peptide, resulting in a low mP value. Molecules that compete with the FP l peptide can be titrated and IC50 values determined (GraphPad Prism nonlinear regression curve-fitting program) by plotting mp values as the direct measure of fraction bound vs, the log of the compound concentration.

In a further assay the target is XIAP-Bir3 (Homo sapiens, UniProt P98170). The assay can be described thus: Fluorescence polarization binding assay, purified XIAP BIR-3 domain. How it is done: as §1, §2
In another assay the target is cIAP-2-Bir3 (Homo sapiens, UniProt Q13489). Nature of the assay: Fluorescence polarization binding assay, purified cIAP-2 BIR-3 domain. The procedure: as §1, §2
(Polarisation of emitted light reports the rotation of a fluorescent probe.)

For another assay, the target named is T1, XIAP (Homo sapiens, UniProt P98170).
T1 construct: endogenous in cells; host or cells: SK-OV-3
Nature of the assay: Effect of proteasome inhibitor on IAP degradation, western blot, XIAP. In kind it is cell-based. Conditions: SK-OV-3 cells, 20 hrs, absence of bortezomib. The procedure: (§3) Cells were harvested after trypsinization by centrifuging at 2000 rpm for 10 min. The cell pellet was washed with PBS and lysed with RIPA to disrupt the cell membrane. The lysate after centrifugation was loaded onto a 5-20% polyacrylamide gel to separate the proteins. A Western blot was carried out using standard techniques and probed for XIAP and cIAP-1 proteins as described above.
(§4) Similarly, IAP degradation assays can be carried out by well known techniques, as illustrated above. […] Ubiquitinated protein is then escorted to the 26S proteasome where it undergoes final degradation and the ubiquitin is released and recycled. Once cIAP-1 Antagonists bind to cIAP-1, it results in perturbation of cell survival complexes or dissociation of natural ligands, signaling IAPs to either self ubiquinate or become targets for ubiquitination followed by proteasomal degradation. […] To further elucidate the machinery involved with this phenomenon, we focused on the regulation of IAP stability and asked whether or not the proteasome was involved in the degradation of cIAP-1 and XIAP.
For orientation: In western blotting, separated proteins are transferred to a membrane and probed.

A further assay has as its target T2, cIAP-1 (Homo sapiens, UniProt Q13490).
T2 construct: endogenous in cells; host or cells: SK-OV-3
Nature of the assay: Effect of proteasome inhibitor on IAP degradation, western blot, cIAP-1. Conditions: SK-OV-3 cells, 20 hrs, absence of bortezomib. In kind it is cell-based. The procedure: as §3, §4

The next assay deals with OVCAR-3 cells. Nature of the assay: Synergistic toxicity with SN-38 (topoisomerase I inhibitor). It counts as cell-based. As to conditions: compared between Compounds N and H.
Another assay deals with SK-OV-3^R cells. The assay can be described thus: MTT assay on IAP Antagonist-resistant SK-OV-3^R cells. Conditions: SK-OV-3^R cells (IAP Antagonist-resistant). In kind it is cell-based. The procedure: (§5) Another unexpected observation we made was with respect to TRAIL sensitivity. IAP Antagonist-resistant […] cells (SK-OV-3^R) were generated by exposing the parental SK-OV-3 cells ([…]) to an IAP antagonist compound at a concentration that kills 95% of cells. Three days later, viable cells were transferred to a fresh flask and grown to confluency. Two weeks later, the cells were tested for IAP Antagonist sensitivity in an MTT assay as describe above and as expected, found these cells to be resistant to IAP Antagonist cytotoxicity.

The subject of a further assay is SK-OV-3^S cells. The assay can be described thus: MTT assay, TRAIL sensitivity of parental SK-OV-3^S cells. It counts as cell-based. As to conditions: SK-OV-3^S cells (parental). How it is done: as §5
The mark [1] stands for this setting: fluorescence polarization, Table 8, read-out: cIAP-1, Kd(3pp).
Where [2] appears, read: fluorescence polarization, Table 8, read-out: XIAP, Kβ(spp).
Where [3] appears, read: fluorescence polarization, Table 8, read-out: cIAP-2, Kd(apβ).
Where [4] appears, read: Table 10, read-out: Kd(App), c-IAP-1.
Where [5] appears, read: Table 10, read-out: Kd(App), XIAP.
[6] abbreviates: Table 10, read-out: Kd(App), cIAP-2.

Sequence of cIAP-1-Bir3 (Q13490 253-363 limits assumed): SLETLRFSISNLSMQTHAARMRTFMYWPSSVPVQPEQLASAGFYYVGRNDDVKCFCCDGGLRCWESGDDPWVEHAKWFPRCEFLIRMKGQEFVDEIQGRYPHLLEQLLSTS
Sequence of cIAP-2-Bir3 (Q13489 238-349 limits assumed): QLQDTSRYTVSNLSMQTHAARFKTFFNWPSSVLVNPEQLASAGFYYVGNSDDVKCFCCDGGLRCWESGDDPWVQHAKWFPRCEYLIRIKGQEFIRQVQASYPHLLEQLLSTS
Sequence of XIAP-Bir3 (P98170 241-356 limits assumed): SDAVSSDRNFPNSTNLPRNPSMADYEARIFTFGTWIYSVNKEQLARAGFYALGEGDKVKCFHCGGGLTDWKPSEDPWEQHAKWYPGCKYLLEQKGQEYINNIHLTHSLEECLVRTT
T1 sequence (P98170 whole entry): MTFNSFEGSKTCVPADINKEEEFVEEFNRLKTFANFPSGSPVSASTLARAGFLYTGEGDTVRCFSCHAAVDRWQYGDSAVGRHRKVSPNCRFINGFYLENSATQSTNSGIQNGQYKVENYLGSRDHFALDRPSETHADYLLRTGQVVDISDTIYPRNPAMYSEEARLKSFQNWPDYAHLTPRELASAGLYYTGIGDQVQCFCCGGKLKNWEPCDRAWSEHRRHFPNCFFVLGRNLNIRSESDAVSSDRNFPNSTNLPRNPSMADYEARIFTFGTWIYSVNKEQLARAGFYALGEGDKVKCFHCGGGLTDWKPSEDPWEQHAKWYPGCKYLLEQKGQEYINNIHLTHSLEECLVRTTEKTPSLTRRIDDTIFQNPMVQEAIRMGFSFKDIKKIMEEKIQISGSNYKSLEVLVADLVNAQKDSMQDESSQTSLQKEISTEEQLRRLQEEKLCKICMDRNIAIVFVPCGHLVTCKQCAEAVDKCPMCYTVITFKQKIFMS
T2 sequence (Q13490 whole entry): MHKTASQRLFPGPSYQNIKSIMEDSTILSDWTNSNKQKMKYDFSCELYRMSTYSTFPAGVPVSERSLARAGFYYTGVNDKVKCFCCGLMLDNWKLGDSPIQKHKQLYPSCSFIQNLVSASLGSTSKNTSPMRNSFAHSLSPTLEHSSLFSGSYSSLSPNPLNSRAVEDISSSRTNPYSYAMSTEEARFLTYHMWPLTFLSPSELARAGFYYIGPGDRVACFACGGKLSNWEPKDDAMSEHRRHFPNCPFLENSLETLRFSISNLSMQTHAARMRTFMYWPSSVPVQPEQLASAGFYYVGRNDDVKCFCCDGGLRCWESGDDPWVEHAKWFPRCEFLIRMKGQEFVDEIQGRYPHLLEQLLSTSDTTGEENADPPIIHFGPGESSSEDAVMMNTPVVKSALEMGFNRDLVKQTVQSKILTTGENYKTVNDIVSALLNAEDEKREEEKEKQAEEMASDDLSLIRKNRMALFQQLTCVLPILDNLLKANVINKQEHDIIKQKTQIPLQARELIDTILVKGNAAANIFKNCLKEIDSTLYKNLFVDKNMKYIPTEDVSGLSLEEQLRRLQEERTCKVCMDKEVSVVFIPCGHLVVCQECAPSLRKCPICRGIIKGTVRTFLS

In the assay with SK-OV-3 cells, `CNC(C)C(=O)NC(C(=O)N1CC(OC(C)=O)CC1Cc1c[nH]c2ccccc12)C(C)O` (centres unmarked) [J] displayed a CC50 of 0.008 µM. The Kd was 53 nM on cIAP-1-Bir3 (setting [1]), 460 nM on XIAP-Bir3 (setting [2]) and 26 nM at cIAP-2-Bir3 (setting [3]).
Regarding `CN[C@@H](C)C(=O)N[C@H](C(=O)N1CCC[C@H]1Cc1c(-c2ccc(-c3c(C[C@@H]4CCCN4C(=O)[C@@H](NC(=O)[C@H](C)NC)C(C)(C)C)c4ccc(F)cc4n3CCO)cc2)n(CCO)c2cc(F)ccc12)C(C)(C)C` [Q], the “XIAP protein level by western blot” value on XIAP was “complete disappearance”. In addition, the “cIAP-1 protein level by western blot” value on cIAP-1 is recorded as “complete disappearance”.
On to `CNC(C)C(=O)NC(C(=O)N1CC(OC(C)=O)CC1Cc1c[nH]c2ccccc12)C(C)C` (centres unmarked) [Compound H], for which the EC50 in the assay with SK-OV-3 cells was found to be 7 nM. The molecule further had a CC50 with SK-OV-3 cells of 0.007 µM. The Kd at cIAP-1-Bir3 (setting [4]) is 1 nM; on XIAP-Bir3 (setting [5]) it was 117 nM; on XIAP-Bir3 (setting [2]), 120 nM; at cIAP-2-Bir3 (setting [6]), 46 nM. For the same molecule, on cIAP-1-Bir3, the “binding to cIAP-1 and cIAP-2 relative to XIAP (fold more tightly)” value is 117 fold. Besides, the “synergistic toxicity with SN-38, synergistic volume” value in the assay with OVCAR-3 cells is recorded as “comparable”.
In the case of `CNC(C)C(=O)NC(C(=O)N1CCCC1Cc1c[nH]c2ccc(C)cc12)C(C)O` (centres unmarked) [Compound K], it took 0.002 µM to reach half-maximal cytotoxicity with SK-OV-3 cells (CC50). In addition, the figures for the Kd at cIAP-1-Bir3 (setting [1]), at XIAP-Bir3 (setting [2]) and at cIAP-2-Bir3 (setting [3]) were 8 nM, 310 nM and 6 nM, respectively.
In the case of `CNC(C)C(=O)NC(C(=O)N1CC(O)CC1Cc1c(-c2ccc(-c3[nH]c4ccccc4c3CC3CC(O)CN3C(=O)C(NC(=O)C(C)NC)C(C)(C)C)cc2)[nH]c2ccccc12)C(C)(C)C` (centres unmarked) [N], the midpoint of the response in the assay with SK-OV-3 cells, the EC50, lay at 7 nM. Also, the Kd was 1 nM on cIAP-1-Bir3 (setting [4]), 1 nM on XIAP-Bir3 (setting [5]) and 6 nM at cIAP-2-Bir3 (setting [6]). The “binding to cIAP-1 and cIAP-2 relative to XIAP (fold more tightly)” value on cIAP-1-Bir3 was “comparable affinity”. Also, the “synergistic toxicity with SN-38, synergistic volume” value with OVCAR-3 cells is given as “comparable”.
`CNC(C)C(=O)NC(C(=O)N1CCCC1Cc1c(-c2ccc(F)cc2)n(CCOCCOCCOC)c2cc(F)ccc12)C(C)(C)C` (centres unmarked) [F] showed a CC50 with SK-OV-3 cells of 0.079 µM. The values for the Kd at cIAP-1-Bir3 (setting [1]), on XIAP-Bir3 (setting [2]) and at cIAP-2-Bir3 (setting [3]) were 26 nM, 820 nM and 120 nM, respectively.
In the same order, the values of `CC(C)C(NC(=O)CN)C(=O)N1CC(Oc2ccccc2)CC1Cc1coc2ccccc12` (centres unmarked) [D] are 0.043 µM, 17 nM, 160 nM and 33 nM.
In the assay with SK-OV-3 cells, `CNC(C)C(=O)NC(C(=O)N1CCCC1Cc1c(-c2ccc(N3CCOCC3)cc2)n(CCOCCOCCOC)c2cc(F)ccc12)C(C)(C)C` (centres unmarked) [G] displayed a CC50 of 0.28 µM. For the same molecule, the Kd was found to be 130 nM on cIAP-1-Bir3 (setting [1]), 400 nM at XIAP-Bir3 (setting [2]) and 180 nM on cIAP-2-Bir3 (setting [3]).
`CCC(C)[C@H](NC(=O)[C@H](C)NC)C(=O)N1CCC[C@H]1Cc1c2n(c3ccc(F)cc13)CCn1c-2c(C[C@@H]2CCCN2C(=O)[C@@H](NC(=O)[C@H](C)NC)C(C)CC)c2cc(F)ccc21` (some centres unmarked) [A]: in the assay with SK-OV-3 cells, the midpoint of cytotoxicity, the CC50, lay at 0.0002 µM. In addition, the Kd at cIAP-1-Bir3 (setting [1]) worked out at 0.5 nM; on XIAP-Bir3 (setting [2]), 10 nM; on cIAP-2-Bir3 (setting [3]), 14 nM.
In the assay with SK-OV-3 cells, `CNC(C)C(=O)NC(C(=O)N1CCCC1Cc1c(-c2ccc(C(=O)OC)cc2)n(CCOCCOCCOC)c2cc(F)ccc12)C(C)(C)C` (centres unmarked) [E] returned a CC50 of 0.046 µM. Further, the Kd was found to be 16 nM on cIAP-1-Bir3 (setting [1]), 90 nM on XIAP-Bir3 (setting [2]) and 8 nM on cIAP-2-Bir3 (setting [3]).
Consider `CNC(C)C(=O)NC(C(=O)N1CC(OC(C)=O)CC1Cc1c[nH]c2ccccc12)C(C)(C)C` (centres unmarked) [I], for which it took 0.004 µM to reach half-maximal cytotoxicity with SK-OV-3 cells (CC50). Further, the Kd at cIAP-1-Bir3 (setting [1]) was determined as 72 nM; on XIAP-Bir3 (setting [2]), 200 nM; at cIAP-2-Bir3 (setting [3]), 50 nM.

B1: TRAIL: tumor necrosis factor-related apoptosis inducing ligand, member of the TNF superfamily that induces apoptosis through death receptors (protein, UniProt P50591 1-281, looked up)
Tumor necrosis factor ligand …: MAMMEVQGGPSLGQTCVLIVIFTVLLQSLCVAVTYVYFTNELKQMQDKYSKSGIACFLKEDDSYWDPNDEESMNSPCWQVKWQLRQLVRKMILRTSEETISTVQEKQQNISPLVRERGPQRVAAHITGTRGRSNTLSSPNSKNEKALGRKINSWESSRSGHSFLSNLHLRNGELVIHEKGFYYIYSQTYFRFQEEIKENTKNDKQMVQYIYKYTSYPDPILLMKSARNSCWSKDAEYGLYSIYQGGIFELKENDRIFVSVTNEHLIDMDHEASFFGAFLVG
As for B1, the “TRAIL sensitivity in MTT assay” value with SK-OV-3^R cells is recorded as “sensitive to TRAIL”; in the assay with SK-OV-3^S cells, “resistant to TRAIL”.

In general, CC50 refers to the concentration at which the toxic effect on the cells reaches its halfway point. Lower therefore signals harm at low concentration. As usually defined, the EC50 is the concentration giving half of the maximal effect. Low readings indicate a more potent agent, high ones a less potent agent.
